US10493158B2, “Pharmaceutical compositions for the treatment of inflammatory disorders” (GALAPAGOS NV, priority 2014, dated 2019)
Where a name gives a salt, the structure may show the parent alone.

Legend:
[1] = Dog bioavailability study (PK after single oral administration of capsules); type: in vivo, beagle dogs; settings: for Cmax / Exposure AUC / Tmax: listed as HCl•trihydrate
Procedure: The dogs are not fasted before dosing, and have free access to water. Every day of the treatment, a half food ration is provided after the T0 blood sampling, 8 to 17 min before treatment, and the second half ration is given just after dosing or 1 h after treatment for period 2. A 3 days washout period is ensured between treatments.
The capsule composition is described in the table below.
The capsules are administered orally with water (5-10 mL), to provide good oesophageal transit. Each animal is checked at least once daily.
Blood is collected from the jugular vein into lithium heparinised tubes at T0 (before food administration) and then at 1 h, 2 h, 4 h, 6 h, 8 h, 10 h, and 24 h post treatment.
Plasma is then obtained from blood by centrifugation (2500 g for 10 min at 4° C.), and stored at −20° C. until analysis.
After vortex mixing and centrifugation at 4° C., the supernatants are diluted with a 0.5 volume of HPLC grade water in a midi-eppendorf 96-well plate. The plate is sealed and shaken to ensure sample homogeneity prior to analysis.
Pharmacokinetic analysis is performed using WinNonlin™ software version 5.3, using concentrations from individual animals. Non-compartmental analysis is applied to determine the PK parameters (Cmax, Tmax, AUC0-last, t1/2, etc . . . )
Concentrations below the limit of detection are set to zero for descriptive statistics and PK parameter calculations.

[2] = Accelerated stability study of Compound 1.HCl.3H2O (FT-IR, DSC, XRPD); type: physicochemical; settings: 3 months
Text: Samples of [Compound 1. HCl.3H2O] are stored under conditions to evaluate chemical stability and physical stability as described in the table below: [table] Samples are taken at T0, then every month up to 3 months, and analysed by FT-IR, DSC, and XRPD.

[3] = Salt study: XRPD analysis / hygroscopicity of the hydrochloric acid salt; type: physicochemical; settings: salt containing 4-5% water
Procedure: (§1) The mixture is cooled to 25° C. at 1° C./min and stirred at 25° C. for 22 h. The solid is isolated by vacuum filtration and dried under suction.

[4] = Thermodynamic aqueous solubility by HPLC; type: physicochemical; settings: water
Procedure: as §1

[5] = dogs, oral capsules, on average and at the 2 capsule strengths
[6] = male beagle dogs, single oral administration, capsules, dose 25 mg/kg
[7] = male beagle dogs, single oral administration, capsules, dose 100 mg/kg

In the case of `O=C(Nc1nc2cccc(-c3ccc(CN4CCS(=O)(=O)CC4)cc3)n2n1)C1CC1` [Compound 1.HCl.3H2O, cyclopropanecarboxylic acid {5-[4-(1,1-dioxo-thiomorpholin-4-ylmethyl)-phenyl]-[1,2,4]triazolo[1,5-a]pyridin-2-yl}-amide], the half-life ([1]; dog, plasma, male beagle dogs, single oral administration, one range printed across both forms and both doses) is reported as 4.43 to 8.96 h, the “in vivo exposure compared with Compound 1 (free base)” value [1, 5] is reported as “improved exposure” and the “rate of absorption compared with Compound 1 (free base)” value [1, 5] is reported as “more rapidly absorbed”. The Cmax [1, 6] was 3050 ng/mL, the “Exposure AUC” value [1, 6] was 33600 ng·h/mL and the Tmax [1, 6] was 2.0 h. For the same molecule, the Cmax [1, 7] was 2630 ng/mL, the “Exposure AUC” value [1, 7] was 21700 ng·h/mL and the Tmax [1, 7] was 2.0 h. The “chemical and physical stability” value ([2]; 25° C./60% RH open, 40° C./75% RH open, 50° C. closed, RT/<5%, 56%, 75% RH open) was “stable under all conditions” and the change in crystallinity ([2]; all storage conditions of Table VI) was “no change in crystallinity”.
Work on `O=C(Nc1nc2cccc(-c3ccc(CN4CCS(=O)(=O)CC4)cc3)n2n1)C1CC1` [Compound 1, cyclopropanecarboxylic acid {5-[4-(1,1-dioxo-thiomorpholin-4-ylmethyl)-phenyl]-[1,2,4]triazolo[1,5-a]pyridin-2-yl}-amide] yielded an AUC ([1]; male, beagle, dog, plasma, po, 100 mg/kg, male beagle dogs, single oral administration, capsules, dose 100 mg/kg, read-out: Exposure AUC) of 11100 ng·h/mL.
In the case of `O=C(Nc1nc2cccc(-c3ccc(CN4CCS(=O)(=O)CC4)cc3)n2n1)C1CC1` [hydrochloric acid salt of Compound 1, cyclopropanecarboxylic acid {5-[4-(1,1-dioxo-thiomorpholin-4-ylmethyl)-phenyl]-[1,2,4]triazolo[1,5-a]pyridin-2-yl}-amide], the “hygroscopicity of the salt” value [3] is reported as “non-hygroscopic” and the solubility [4] is reported as 1900 µg/mL.
